Where two headings read alike, the source gives them in different places.

Data set [1] relates to A549 (non-small cell lung cancer). Description: NCI method SRB growth inhibition, A549. It is filed as cell-based. The note with it: Homo sapiens; A549, treated 48 hours, SRB stain. The essentials:
(§1)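 Cells were exposed to compound for 48 h alongside a time-zero plate fixed at dosing and a 48 h vehicle control, then stained with sulforhodamine B and read at 515 nm. GI50 is the concentration giving 50% growth relative to time-zero and vehicle ODs; TGI where test OD equals time-zero OD; LC50 where 50% of starting cells are killed.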
(In general: The SRB assay estimates cell density from bound dye.)

A further data set concerns HS 578T (breast cancer). Description: NCI method SRB growth inhibition, HS 578T. The data set is classed as cell-based. The note with it: Homo sapiens, HS578T, treated 48 hours, SRB stain. The essentials: as §1
In data set [2] the test system is SF295 (central nervous system tumor). Description: NCI method SRB growth inhibition, SF295. The note with it: Homo sapiens, SF-295; SF295, treated 48 hours, SRB stain. It is filed as cell-based. The essentials: as §1
A further data set has as its system K562 (leukemia). In words: NCI method SRB growth inhibition, K562. The following applies: Homo sapiens; K562, treated 48 hours, SRB stain. The data set is classed as cell-based. Put shortly: as §1
The subject of a further data set is 786-0 (renal cancer). In words: NCI method SRB growth inhibition, 786-0. The data set is classed as cell-based. The following applies: Homo sapiens; 786-0, treated 48 hours, SRB stain. The essentials: as §1
In another data set the test system is LOX-IMVI (melanoma). Description: NCI method SRB growth inhibition, LOX-IMVI. The data set is classed as cell-based. The note with it: Homo sapiens, treated 48 hours, SRB stain. The essentials:
as §1

The subject of the next data set is OVCAR-3 (ovarian cancer). In words: NCI method SRB growth inhibition, OVCAR-3. The note with it: Homo sapiens; OVCAR-3, treated 48 hours, SRB stain. The data set is classed as cell-based. Put shortly:
as §1

Data set [3] is described as follows: Metabolic stability in vivo (plasma half-life after IV). The note with it: mouse, plasma, iv; intravenously at 1 mg/kg, male BALB/c nude mice; read-out: T½ of (IV in nude mice) (converted). How it is done: The intravenous injection group of the embodiment compound was prepared with the mixed solvent of DMA:PEG400:30% SBECD=5:25:70 to form a 0.2 mg/mL of solution, and administered intravenously at 1 mg/kg of weight; and the oral preparation group was prepared with 0.5% MC to form a 1 mg/mL of solution, and administered by oral gavage at 10 mg/kg weight.
• Male BALB/c nude mice, 4-5 weeks old, purchased from Shanghai SLAC. 3. Experiment Method: 3.1 Instruments: • Liquid chromatography system: Shimadzu liquid chromatography system Shimadzu LC-30AD • MS/MS system: Applied Biosystems API5500 • Data collection: Analyst Software 1.5.2 3.2 Chromatographic Conditions Chromatographic Column • Analytical column: Kinetex 2.6u C18 100 A column (3.0 mm×30 mm) • Mobile phase: A: 10 mM NH4OAc (0.1% FA); B: Acetonitrile with 0.1% […] • Flow rate: 1.0 mL/min
Ion source was an electron spray ionization (ESI source) with negative ion detection; spray voltage source was 5500 V; ion source gas 1 (N2) was 50 psi; ion source gas 2 (N2) was 50 psi; air curtain gas (N2) was 30 psi. Scanning mode was multiple reaction monitoring (MRM); scanning time was 80 ms; collision gas pressure was 10 psi;
Grouping experiment, with three animals in each group, starting from now on, administration was started according to the weight of the animals. Blood was collected according to 5 min, 15 min, 30 min, 1 h, 2 h, 4 h, 8 h and 24 h after administration.
To 25.0 μL of plasma, 25.0 μL of internal standard solution (Tolbutamide (250 ng/mL) in acetonitrile), 25.0 μL of acetonitrile and 100 μL of acetonitrile were added, and the mixture was vortexed for 1 min, and centrifuged for 5 min (14000 rpm). 120 μL of the resulting supernatant was added with 80.0 μL of water (containing 1% formic acid) and mixed well, then analyzed by LC/MS/MS.

Data set [4] in a line: Liver microsomes stability. It is filed as in vitro ADME, human. The note with it: for half-life at 1 μM: human, human liver microsomes. Put shortly:
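Compound at 1 μM final incubated with 1 mg/mL human liver microsomes and 1 mM NADPH (no-NADPH control), sampled at 0, 5, 15, 30, 60 min. Remaining parent quantified by LC-MS/MS; T1/2 = 0.693/k.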
On the technique in general: Liver microsomes are a subcellular fraction often used to study metabolism.

Another data set relates to HCT116 (colon cancer). Description: NCI method SRB growth inhibition, HCT116. The data set is classed as cell-based. The note with it: Homo sapiens, HCT-116; HCT116, treated 48 hours, SRB stain. The essentials:
as §1

The next data set has as its system PC-3 (prostate cancer). Description: NCI method SRB growth inhibition, PC-3. The data set is classed as cell-based. The note with it: Homo sapiens; PC-3, treated 48 hours, SRB stain. The essentials:
as §1

Where [5] appears, read: 1 μM compound, 1 mg/mL human liver microsomes, 1 mM NADPH.
Where [6] appears, read: 1 μM compound, 1 mg/mL human liver microsomes, 1 mM NADPH, read-out: T½ of HLM.
[7] abbreviates: as repeated in Table 4, read-out: T½ of HLM (in vitro).

The GI50 is the concentration that inhibits growth by half. Read a low GI50 as more potent growth inhibition. In general, microsomal CLint refers to the capacity of the preparation to metabolise the compound, expressed as a volume cleared per time. Higher therefore signals faster metabolism. As to `[2H]C([2H])([2H])Oc1cc(C(=O)Nc2cc3c(cc2Oc2cc(C)cc(C)c2)C(=O)N[C@@H](CC(=O)N(C([2H])([2H])C([2H])([2H])[2H])C([2H])([2H])C([2H])([2H])[2H])C(=O)N3)c(Br)c(OC([2H])([2H])[2H])c1OC([2H])([2H])[2H]` [Compound 5, (S)-2-bromo-N-[3-[2-[bis(pentadeuteroethyl)amino]-2-oxoethyl]-7-(3,5-dimethylphenoxy)-2,5-dioxo-2,3,4,5-tetrahydro-1H-benzo[e][1,4]diazepin-8-yl]-3,4,5-tris(trideuteromethoxy)benzamide], the GI50 in data set [1] was less than 5 nM; in the data set with HS 578T (breast cancer), less than 5 nM; in [2] it was 17.4 nM; in the data set with K562 (leukemia), less than 5 nM; with 786-0 (renal cancer) it was 26.1 nM; with LOX-IMVI (melanoma), less than 5 nM. In addition, the GI50 in the data set with OVCAR-3 (ovarian cancer), in the data set with HCT116 (colon cancer) and in the data set on PC-3 (prostate cancer) was less than 5 nM throughout. The half-life in [3] is 1.52 h. Besides, the microsomal CLint at 1 μM in data set [4] (setting [5]) came out at 3.2 µL/min/mg. The half-life at 1 μM in data set [4] (setting [6]) and in data set [4] (setting [7]) was 3.62 h throughout.
As to `[2H]C([2H])([2H])Oc1cc(C(=O)Nc2cc3c(cc2Oc2cc(C)cc(C)c2)C(=O)N[C@@H](CC(=O)N(C)C)C(=O)N3)c(Br)c(OC([2H])([2H])[2H])c1OC([2H])([2H])[2H]` [Compound 20, (S)-2-bromo-N-[3-[2-(dimethylamino)-2-oxoethyl]-7-(3,5-dimethylphenoxy)-2,5-dioxo-2,3,4,5-tetrahydro-1H-benzo[e][1,4]diazepin-8-yl]-3,4,5-tris(trideuteromethoxy)benzamide], the GI50 in data set [1] was less than 5 nM; with HS 578T (breast cancer), less than 5 nM; in data set [2], 19.9 nM; in the data set with K562 (leukemia) it was less than 5 nM; in the data set on 786-0 (renal cancer), 26.5 nM; in the data set on LOX-IMVI (melanoma), less than 5 nM. The GI50 in the data set with OVCAR-3 (ovarian cancer), in the data set on HCT116 (colon cancer) and with PC-3 (prostate cancer) was less than 5 nM in each case. For the same compound, in data set [3], the half-life is 0.8 h. Also, the intrinsic metabolic clearance (microsomal CLint) at 1 μM in data set [4] (setting [5]) came to 2.1 µL/min/mg. Moreover, the half-life at 1 μM in data set [4] (setting [6]) and in data set [4] (setting [7]) was 5.5 h in each case.
In the case of `[2H]C([2H])([2H])Oc1cc(C(=O)Nc2cc3c(cc2Oc2cc(C)cc(C)c2)C(=O)N(C)[C@@H](CC(=O)N(C)C)C(=O)N3)c(Br)c(OC([2H])([2H])[2H])c1OC([2H])([2H])[2H]` [Compound 16, (S)-2-bromo-N-[3-[2-(dimethylamino)-2-oxoethyl]-7-(3,5-dimethylphenoxy)-4-methyl-2,5-dioxo-2,3,4,5-tetrahydro-1H-benzo[e][1,4]diazepin-8-yl]-3,4,5-tris(trideuteromethoxy)benzamide], the GI50 in data set [1] was less than 5 nM; in the data set with HS 578T (breast cancer), less than 5 nM; in [2], 7.6 nM; with K562 (leukemia) it was less than 5 nM; in the data set with 786-0 (renal cancer), 11.2 nM; in the data set on LOX-IMVI (melanoma) it was less than 5 nM. Moreover, the GI50 in the data set with OVCAR-3 (ovarian cancer), in the data set on HCT116 (colon cancer) and in the data set on PC-3 (prostate cancer) was less than 5 nM each time. In addition, the half-life in data set [3] is 0.585 h. Moreover, the microsomal CLint at 1 μM in data set [4] (setting [5]) amounted to 11.6 µL/min/mg. For the same compound, the half-life at 1 μM is 0.948 h in [4] (setting [6]) and 0.997 h in data set [4] (setting [7]).
